Test results as given in patent US20070049593A1 (priority 2004, published 2007).
Counter-ions that a name gives are not always drawn.

Target: T1, HCV polymerase (Hepatitis C virus genotype 1b, UniProt P26663)
T1 construct: a region encoding NS5B (J Virol 1991 March, 65(3), 1105-13, 544 amino acids after deletion of 47 amino acids on the C-terminal); 6xHis (C); made in house; host or cells: Escherichia coli
Test: biochemical
Set-up: species or system HCV BK strain
Outline: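 Recombinant HCV BK-strain NS5B (C-terminal 47 aa deleted, His6-tagged, E. coli), 0.5 μg/ml, run with 5 μg/ml in vitro-transcribed RNA template (polyU/3′X), ATP/GTP/CTP 50 μM, UTP 2 μM plus [3H]UTP, pH 7.5, 25° C, 90 min. TCA-precipitated RNA counted by scintillation; IC50 from activity with vs without compound.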

T1 sequence (P26663 2420-2963): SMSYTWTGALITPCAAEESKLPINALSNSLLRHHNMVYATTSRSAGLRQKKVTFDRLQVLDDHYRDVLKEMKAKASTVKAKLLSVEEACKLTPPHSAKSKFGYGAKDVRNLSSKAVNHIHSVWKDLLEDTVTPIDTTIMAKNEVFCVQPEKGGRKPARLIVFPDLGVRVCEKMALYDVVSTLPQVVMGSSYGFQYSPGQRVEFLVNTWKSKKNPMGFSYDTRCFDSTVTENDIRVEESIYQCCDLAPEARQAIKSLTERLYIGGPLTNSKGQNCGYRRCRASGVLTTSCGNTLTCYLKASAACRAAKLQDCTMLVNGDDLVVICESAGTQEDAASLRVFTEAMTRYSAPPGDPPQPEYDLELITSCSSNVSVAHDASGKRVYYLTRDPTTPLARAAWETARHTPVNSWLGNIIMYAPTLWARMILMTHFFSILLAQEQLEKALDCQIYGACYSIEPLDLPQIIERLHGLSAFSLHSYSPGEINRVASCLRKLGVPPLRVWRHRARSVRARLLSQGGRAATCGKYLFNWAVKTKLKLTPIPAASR

SMILES | IC50
CCc1ccc2c(c1)N(CCN1CCCC1)CCn1c-2c(C2CCCCC2)c2ccc(C(=O)O)cc21 [Example 1-360, 13-cyclohexyl-3-ethyl-5-[2-(pyrrolidin-1-yl)ethyl]-6,7-dihydro-5H-benzo[5,6][1,4]diazepino[7,1-a]indole-10-carboxylic acid monohydrochloride] | < 100 nM
CC1CCCN(CCN2CCn3c(c(C4CCCCC4)c4ccc(C(=O)O)cc43)-c3ccc(OCc4ccccc4)cc32)C1 (centres unmarked) [Example 1-361, 3-benzyloxy-13-cyclohexyl-5-[2-(3-methylpiperidin-1-yl)ethyl]-6,7-dihydro-5H-benzo[5,6][1,4]diazepino[7,1-a]indole-10-carboxylic acid dihydrochloride] | < 100 nM
CC(C)N1CCCC(CCN2CCn3c(c(C4CCCCC4)c4ccc(C(=O)O)cc43)-c3ccc(OCc4ccccc4)cc32)C1 (centres unmarked) [Example 1-362, 3-benzyloxy-13-cyclohexyl-5-[2-(1-isopropylpiperidin-3-yl)ethyl]-6,7-dihydro-5H-benzo[5,6][1,4]diazepino[7,1-a]indole-10-carboxylic acid dihydrochloride] | < 100 nM
Cc1cc(COc2ccc3c(c2)N(CCN2CCCCC2)CCn2c-3c(C3CCCCC3)c3ccc(C(=O)O)cc32)no1 [Example 1-363, 13-cyclohexyl-3-(5-methylisoxazol-3-ylmethoxy)-5-[2-(piperidin-1-yl)ethyl]-6,7-dihydro-5H-benzo[5,6][1,4]diazepino[7,1-a]indole-10-carboxylic acid dihydrochloride] | < 100 nM
CC(C)C1CCCN(CCN2CCn3c(c(C4CCCCC4)c4ccc(C(=O)O)cc43)-c3ccccc32)C1 (centres unmarked) [Example 1-364, 13-cyclohexyl-5-[2-(3-isopropylpiperidin-1-yl)ethyl]-6,7-dihydro-5H-benzo[5,6][1,4]diazepino[7,1-a]indole-10-carboxylic acid dihydrochloride] | < 100 nM
Cc1ccc2c(c1)N(CCN1CCCC(C(C)C)C1)CCn1c-2c(C2CCCCC2)c2ccc(C(=O)O)cc21 (centres unmarked) [Example 1-365, 13-cyclohexyl-5-[2-(3-isopropylpiperidin-1-yl)ethyl]-3-methyl-6,7-dihydro-5H-benzo[5,6][1,4]diazepino[7,1-a]indole-10-carboxylic acid dihydrochloride] | < 100 nM
CCc1ccc2c(c1)N(CCN1CCCC(COC)C1)CCn1c-2c(C2CCCCC2)c2ccc(C(=O)O)cc21 (centres unmarked) [Example 1-366, 13-cyclohexyl-3-ethyl-5-[2-(3-methoxymethylpiperidin-1-yl)ethyl]-6,7-dihydro-5H-benzo[5,6][1,4]diazepino[7,1-a]indole-10-carboxylic acid dihydrochloride] | < 100 nM
COCC1CCCN(CCN2CCn3c(c(C4CCCCC4)c4ccc(C(=O)O)cc43)-c3ccc(C(C)C)cc32)C1 (centres unmarked) [Example 1-367, 13-cyclohexyl-3-isopropyl-5-[2-(3-methoxymethylpiperidin-1-yl)ethyl]-6,7-dihydro-5H-benzo[5,6][1,4]diazepino[7,1-a]indole-10-carboxylic acid dihydrochloride] | < 100 nM
CC1CCCN1CCCN1CCn2c(c(C3CCCCC3)c3ccc(C(=O)O)cc32)-c2ccc(Cl)cc21 (centres unmarked) [Example 1-368, 3-chloro-13-cyclohexyl-5-[3-(2-methylpyrrolidin-1-yl)propyl]-6,7-dihydro-5H-benzo[5,6][1,4]diazepino[7,1-a]indole-10-carboxylic acid] | < 100 nM
CCc1ccc2c(c1)N(CCC1CCCN(C(C)C)C1)CCn1c-2c(C2CCCCC2)c2ccc(C(=O)O)cc21 (centres unmarked) [Example 1-369, 13-cyclohexyl-3-ethyl-5-[2-(1-isopropylpiperidin-3-yl)ethyl]-6,7-dihydro-5H-benzo[5,6][1,4]diazepino[7,1-a]indole-10-carboxylic acid] | < 100 nM
CCOc1ccc2c(c1)N(CCN1CCCC(COC)C1)CCn1c-2c(C2CCCCC2)c2ccc(C(=O)O)cc21 (centres unmarked) [Example 1-370, 13-cyclohexyl-3-ethoxy-5-[2-(3-methoxymethylpiperidin-1-yl)ethyl]-6,7-dihydro-5H-benzo[5,6][1,4]diazepino[7,1-a]indole-10-carboxylic acid] | < 100 nM
